The source of these data is patent US11076595B2, “1-(n,n-disubstituted carbamoyl) 4-(substituted sulfonyl)triazolin-5-one derivative, 4-(n,n-disubstituted carbamoyl) 1-(substituted sulfonyl)triazolin-5-one derivative, and herbicide containing said derivative as active ingredient” (HOKKO CHEMICAL INDUSTRY CO., LTD., priority 2017, dated 2021).

Holding throughout (assay type): in vivo
For experiment [1], the system named is Lindernia pyxidaria. The experiment in a line: Test Example 11: herbicidal effect test by soil treatment in paddy field. Conditions: 120 g/10a active ingredient, 14 days after treatment. The source says: (§1) A Wagner pot having an area of 1/10000 are was filled with paddy field soil and after adding water, a chemical fertilizer (N:P:K=17:17:17) was mixed, followed by puddling. Thereafter, 30 grains of each of Echinochloa crus-galli, broad-leaved weed (Lindernia pyxidaria, Monochoria vaginalis) and Scirpus juncoides seeds were sown to a depth of 0 to 1 cm. Immediately after the sowing, the pot was flooded, and the depth of water was kept at about 3 cm. The pot was subsequently managed in a glass greenhouse. Just after that, an emulsifiable concentrate prepared according to Formulation Example 15 by using the compound shown in Table 9 below was diluted with water, and a predetermined amount of the water-diluted formulation was added dropwise. The application rate of the active ingredient, by conversion, corresponded to 120 g per 10 are.
(§2) This test was performed with two replications per one formulation concentration plot, and 14 days after the formulation treatments, the weed suppression rate (%) was determined according to the following equation (Math. 2). Weed suppression rate (%)=(1−average dry weight (g) of plants in treated plots/average dry weight (g) of plants in untreated plots)×100 [Math. 2]

Experiment [2] has as its system Scirpus juncoides. Described as above. Conditions: 120 g/10a active ingredient, 14 days after treatment.
Source text: as §1, §2

The subject of experiment [3] is Monochoria vaginalis. Described as above. Conditions: 120 g/10a active ingredient, 14 days after treatment.
Source text: as §1, §2

Experiment [4] deals with Echinochloa crus-galli. Described as above. As to conditions: 120 g/10a active ingredient, 14 days after treatment.
Source text: as §1, §2

The test system of experiment [5] is Lindernia pyxidaria. The experiment in a line: Test Example 12: herbicidal effect test by treatment during growing period in paddy field. As to conditions: 120 g/10a; treatment seven days after sowing in flooded paddy pot; assessed 14 days after treatment. The protocol:
as §2
as §1, with “Seven Days” for “Just”, “sowing,” for “that,”, “10” for “9”, “are. The test was performed with two replications per one formulation concentration plot, and 14 days after the formulation treatments, the weed suppression rate (%) was determined according to the equation (Math. 2).” for “are.”

Experiment [6] concerns Scirpus juncoides. Described as above. Conditions: 120 g/10a; treatment seven days after sowing in flooded paddy pot; assessed 14 days after treatment. The procedure:
as §2
as §1, with “Seven Days” for “Just”, “sowing,” for “that,”, “10” for “9”, “are. The test was performed with two replications per one formulation concentration plot, and 14 days after the formulation treatments, the weed suppression rate (%) was determined according to the equation (Math. 2).” for “are.”

In experiment [7] the test system is Monochoria vaginalis. The experiment is described as above. Conditions: 120 g/10a; treatment seven days after sowing in flooded paddy pot; assessed 14 days after treatment. The protocol:
as §2
as §1, with “Seven Days” for “Just”, “sowing,” for “that,”, “10” for “9”, “are. The test was performed with two replications per one formulation concentration plot, and 14 days after the formulation treatments, the weed suppression rate (%) was determined according to the equation (Math. 2).” for “are.”

For experiment [8], the system named is Echinochloa crus-galli. Described as above. Conditions: 120 g/10a; treatment seven days after sowing in flooded paddy pot; assessed 14 days after treatment. The procedure:
as §2
as §1, with “Seven Days” for “Just”, “sowing,” for “that,”, “10” for “9”, “are. The test was performed with two replications per one formulation concentration plot, and 14 days after the formulation treatments, the weed suppression rate (%) was determined according to the equation (Math. 2).” for “are.”

Take `Cc1nn(S(=O)(=O)C2CC2)c(=O)n1C(=O)N(c1ccc(F)cc1F)C(C)C` [Compound 11-246]: the “Weed suppression rate (%) Lindemia pyxidaria” value in the experiment with Lindernia pyxidaria [1] and with Lindernia pyxidaria [5] was 80% in each case. The “Weed suppression rate (%) Scirpus juncoides” value with Scirpus juncoides [2] and in the experiment with Scirpus juncoides [6] was 90% in each case. Moreover, the “Weed suppression rate (%) Monochoria vaginalis” value in the experiment with Monochoria vaginalis [3] and in the experiment on Monochoria vaginalis [7] was 80% throughout. Also, the “Weed suppression rate (%) Echinochloa crus-galli” value in the experiment on Echinochloa crus-galli [4] and with Echinochloa crus-galli [8] was 90% throughout.
Turning to `CC(C)N(C(=O)n1cnn(S(=O)(=O)C2CCCCC2)c1=O)c1ccc(Br)cc1Cl` [Compound 11-305], the entries for the “Weed suppression rate (%) Lindemia pyxidaria” value with Lindernia pyxidaria [1] and in the experiment on Lindernia pyxidaria [5] were 100% and 90%, respectively. Moreover, the “Weed suppression rate (%) Scirpus juncoides” value in the experiment with Scirpus juncoides [2] was found to be 90%; with Scirpus juncoides [6] it was 100%. For the same compound, the “Weed suppression rate (%) Monochoria vaginalis” value in the experiment with Monochoria vaginalis [3] and in the experiment with Monochoria vaginalis [7] was 100% in each case. Besides, the “Weed suppression rate (%) Echinochloa crus-galli” value with Echinochloa crus-galli [4] and in the experiment with Echinochloa crus-galli [8] was 100% each time.
`Cc1cc(F)ccc1N(C(=O)n1cnn(S(=O)(=O)C2CCCCC2)c1=O)C(C)C` [Compound 11-307]: the “Weed suppression rate (%) Lindemia pyxidaria” value with Lindernia pyxidaria [1] and in the experiment with Lindernia pyxidaria [5] was 70% each time. Also, the “Weed suppression rate (%) Scirpus juncoides” value with Scirpus juncoides [2] is listed as 80%; in the experiment on Scirpus juncoides [6] it was 60%. For the same compound, the “Weed suppression rate (%) Monochoria vaginalis” value in the experiment on Monochoria vaginalis [3] turned out to be 70%; with Monochoria vaginalis [7], 60%. Further, the entries for the “Weed suppression rate (%) Echinochloa crus-galli” value in the experiment on Echinochloa crus-galli [4] and with Echinochloa crus-galli [8] were 80% and 90%, respectively.
On to `CC(C)N(C(=O)n1cnn(S(=O)(=O)C2CCCCC2)c1=O)c1ccc(C(F)(F)F)cc1Cl` [Compound 11-314], for which the “Weed suppression rate (%) Lindemia pyxidaria” value with Lindernia pyxidaria [1] and in the experiment with Lindernia pyxidaria [5] was 80% in each case. The “Weed suppression rate (%) Scirpus juncoides” value in the experiment on Scirpus juncoides [2] and with Scirpus juncoides [6] was 90% throughout. For the same compound, the “Weed suppression rate (%) Monochoria vaginalis” value with Monochoria vaginalis [3] and with Monochoria vaginalis [7] was 80% each time. Also, the “Weed suppression rate (%) Echinochloa crus-galli” value with Echinochloa crus-galli [4] and in the experiment on Echinochloa crus-galli [8] was 90% each time.
With `CC(C)N(C(=O)n1cnn(S(=O)(=O)C2CCCCC2)c1=O)c1ccc(C#N)cc1Cl` [Compound 11-316], the “Weed suppression rate (%) Lindemia pyxidaria” value with Lindernia pyxidaria [1] and in the experiment with Lindernia pyxidaria [5] was 80% in each case. The “Weed suppression rate (%) Scirpus juncoides” value with Scirpus juncoides [2] and in the experiment with Scirpus juncoides [6] was 90% throughout. For the same compound, the “Weed suppression rate (%) Monochoria vaginalis” value in the experiment on Monochoria vaginalis [3] and in the experiment with Monochoria vaginalis [7] was 80% throughout. Further, the “Weed suppression rate (%) Echinochloa crus-galli” value in the experiment with Echinochloa crus-galli [4] and in the experiment with Echinochloa crus-galli [8] was 90% each time.
Turning to `CCN(C(=O)n1cnn(S(=O)(=O)c2ccccc2)c1=O)C1CCCCC1` [Compound 11-353], the “Weed suppression rate (%) Lindemia pyxidaria” value in the experiment with Lindernia pyxidaria [1] and with Lindernia pyxidaria [5] was 80% each time. Besides, the “Weed suppression rate (%) Scirpus juncoides” value in the experiment with Scirpus juncoides [2] and in the experiment on Scirpus juncoides [6] was 90% in each case. In addition, the “Weed suppression rate (%) Monochoria vaginalis” value in the experiment with Monochoria vaginalis [3] and in the experiment on Monochoria vaginalis [7] was 80% throughout. Moreover, the “Weed suppression rate (%) Echinochloa crus-galli” value with Echinochloa crus-galli [4] and with Echinochloa crus-galli [8] was 90% throughout.
Turning to `CC(C)N(C(=O)n1cnn(S(=O)(=O)c2ccccc2)c1=O)c1ccc(Cl)cc1` [Compound 11-361], the “Weed suppression rate (%) Lindemia pyxidaria” value in the experiment with Lindernia pyxidaria [1] and with Lindernia pyxidaria [5] was 80% each time. For the same compound, the “Weed suppression rate (%) Scirpus juncoides” value in the experiment on Scirpus juncoides [2] and in the experiment on Scirpus juncoides [6] was 90% in each case. For the same compound, the “Weed suppression rate (%) Monochoria vaginalis” value in the experiment on Monochoria vaginalis [3] and in the experiment on Monochoria vaginalis [7] was 80% throughout. In addition, the “Weed suppression rate (%) Echinochloa crus-galli” value in the experiment with Echinochloa crus-galli [4] and with Echinochloa crus-galli [8] was 90% throughout.
Consider `CC(C)N(C(=O)n1cnn(S(=O)(=O)c2ccccc2F)c1=O)c1ccccc1F` [Compound 11-392], for which the “Weed suppression rate (%) Lindemia pyxidaria” value in the experiment with Lindernia pyxidaria [1] and with Lindernia pyxidaria [5] was 80% throughout. Moreover, the “Weed suppression rate (%) Scirpus juncoides” value in the experiment on Scirpus juncoides [2] and in the experiment on Scirpus juncoides [6] was 90% each time. In addition, the “Weed suppression rate (%) Monochoria vaginalis” value with Monochoria vaginalis [3] and with Monochoria vaginalis [7] was 80% each time. The “Weed suppression rate (%) Echinochloa crus-galli” value in the experiment on Echinochloa crus-galli [4] and with Echinochloa crus-galli [8] was 90% each time.
Take `CC(C)N(C(=O)n1cnn(S(=O)(=O)c2ccccc2F)c1=O)c1cccc(F)c1F` [Compound 11-401]: the “Weed suppression rate (%) Lindemia pyxidaria” value stood at 100% with Lindernia pyxidaria [1] and 80% with Lindernia pyxidaria [5]. Also, the entries for the “Weed suppression rate (%) Scirpus juncoides” value in the experiment with Scirpus juncoides [2] and in the experiment with Scirpus juncoides [6] were 90% and 100%, respectively. The “Weed suppression rate (%) Monochoria vaginalis” value with Monochoria vaginalis [3] and in the experiment with Monochoria vaginalis [7] was 100% throughout. The “Weed suppression rate (%) Echinochloa crus-galli” value in the experiment on Echinochloa crus-galli [4] and in the experiment on Echinochloa crus-galli [8] was 100% in each case.
As to `CC(C)N(C(=O)n1cnn(S(=O)(=O)c2ccccc2F)c1=O)c1c(F)cccc1F` [Compound 11-404], the figures for the “Weed suppression rate (%) Lindemia pyxidaria” value with Lindernia pyxidaria [1] and with Lindernia pyxidaria [5] were 30% and 70%, respectively. The “Weed suppression rate (%) Scirpus juncoides” value is listed as 30% in the experiment on Scirpus juncoides [2] and 70% in the experiment with Scirpus juncoides [6]. Also, the “Weed suppression rate (%) Monochoria vaginalis” value turned out to be 60% in the experiment with Monochoria vaginalis [3] and 70% in the experiment with Monochoria vaginalis [7]. For the same compound, the “Weed suppression rate (%) Echinochloa crus-galli” value in the experiment with Echinochloa crus-galli [4] and in the experiment on Echinochloa crus-galli [8] was 100% throughout.
`CC(C)N(C(=O)n1cnn(S(=O)(=O)c2ccccc2F)c1=O)c1ccc(Br)cc1Cl` [Compound 11-413]: the “Weed suppression rate (%) Lindemia pyxidaria” value turned out to be 90% with Lindernia pyxidaria [1] and 70% in the experiment with Lindernia pyxidaria [5]. Further, the results for the “Weed suppression rate (%) Scirpus juncoides” value in the experiment with Scirpus juncoides [2] and in the experiment on Scirpus juncoides [6] were 80% and 70%, respectively. For the same compound, the entries for the “Weed suppression rate (%) Monochoria vaginalis” value in the experiment with Monochoria vaginalis [3] and with Monochoria vaginalis [7] were 80% and 70%, respectively. Further, the “Weed suppression rate (%) Echinochloa crus-galli” value with Echinochloa crus-galli [4] worked out at 80%; in the experiment on Echinochloa crus-galli [8] it was 60%.
Regarding `Cc1ccc(N(C(=O)n2cnn(S(=O)(=O)c3ccccc3F)c2=O)C(C)C)c(F)c1` [Compound 11-416], the “Weed suppression rate (%) Lindemia pyxidaria” value with Lindernia pyxidaria [1] and in the experiment on Lindernia pyxidaria [5] was 80% in each case. The “Weed suppression rate (%) Scirpus juncoides” value with Scirpus juncoides [2] and with Scirpus juncoides [6] was 90% throughout. For the same compound, the “Weed suppression rate (%) Monochoria vaginalis” value with Monochoria vaginalis [3] and in the experiment on Monochoria vaginalis [7] was 80% in each case. In addition, the “Weed suppression rate (%) Echinochloa crus-galli” value with Echinochloa crus-galli [4] and with Echinochloa crus-galli [8] was 90% throughout.
On to `CC(C)N(C(=O)n1cnn(S(=O)(=O)c2ccccc2F)c1=O)c1ccc(C(F)(F)F)cc1F` [Compound 11-419], for which the results for the “Weed suppression rate (%) Lindemia pyxidaria” value in the experiment with Lindernia pyxidaria [1] and in the experiment on Lindernia pyxidaria [5] were 100% and 60%, respectively. Moreover, the “Weed suppression rate (%) Scirpus juncoides” value was determined as 70% in the experiment on Scirpus juncoides [2] and 60% in the experiment on Scirpus juncoides [6]. In addition, the “Weed suppression rate (%) Monochoria vaginalis” value was 60% with Monochoria vaginalis [3] and 80% with Monochoria vaginalis [7]. Besides, the “Weed suppression rate (%) Echinochloa crus-galli” value came out at 100% with Echinochloa crus-galli [4] and 90% with Echinochloa crus-galli [8].
For the compound `CC(C)N(C(=O)n1cnn(S(=O)(=O)c2cccc(F)c2)c1=O)c1ccccc1F` [Compound 11-428], the “Weed suppression rate (%) Lindemia pyxidaria” value in the experiment on Lindernia pyxidaria [1] and with Lindernia pyxidaria [5] was 90% in each case. The “Weed suppression rate (%) Scirpus juncoides” value with Scirpus juncoides [2] and in the experiment with Scirpus juncoides [6] was 90% throughout. Besides, the “Weed suppression rate (%) Monochoria vaginalis” value in the experiment on Monochoria vaginalis [3] and in the experiment with Monochoria vaginalis [7] was 90% in each case. Moreover, the “Weed suppression rate (%) Echinochloa crus-galli” value in the experiment with Echinochloa crus-galli [4] and in the experiment on Echinochloa crus-galli [8] was 90% each time.
